Source: patent US10369145B2, “Coumarin derivatives and methods of use in treating hyperproliferative diseases” (DISCOVERYBIOMED, INC., priority 2013, dated 2019)

How the values were obtained:
UO-31 = experiment: NCI 60 panel: UO-31 (Renal Cancer); assay type: cell-based
Source text: (§5) TGI means the drug concentration resulting in total growth inhibition or “cytostasis.” LC50 is the concentration of drug resulting in a 50% reduction in the measured cytosolic ATP at the end of the drug treatment as compared to that at the beginning, indicating a net loss of cells following treatment (cytotoxicity).

NCI-H522 = experiment: NCI 60 panel: NCI-H522 (Non-Small Cell Lung Cancer); assay type: cell-based
Source text: as §5

SK-MEL-5 = experiment: NCI 60 panel: SK-MEL-5 (Melanoma); assay type: cell-based
Source text: as §5

U266 = experiment: Complementary DBM in vitro profiling: U266 (Hematologic Cancer); assay type: cell-based
Method: (§1) The compounds described herein are effective for inhibiting cellular proliferation in hyperproliferative cell types. To study the effects of these compounds, an assay was developed to differentiate the effects of the compounds on proliferating versus confluent cells. The assay design generates a proliferating density 24 hours after seeding and provides a 3-day active cell growth/doubling window in which to gauge the anti-proliferative effect of the compounds described herein. […] In this 3-day growth window, cell number increases with daily doublings across the 72-hour period (see FIG. 1).
(§2) In each assay design, compounds were added at the 24-hour timepoint after cell seeding. The effect of the compounds, relative to vehicle control and to VelCade (a proteasome inhibitor approved in the U.S. for treating relapsed multiple myeloma and mantle cell lymphoma) as a positive control, was assessed across the 3-day growth window for proliferating cells and on an already near confluent culture of cells for the same time period. Normal cells were handled in the same manner, with some adjustment of seeding density needed in select cases. […]
(§3) Cell number at the end of the assay was determined using the CELLTITER-GLO Luminescent Cell Viability Assay (Promega; Madison, Wis.). The CELLTITER-GLO Luminescent Cell Viability Assay is a homogeneous method of determining the number of viable cells in culture based on quantitation of the ATP present, an indicator of metabolically active cells. IC50 values were calculated. […]
(§4) For a typical screening experiment to identify the compounds, cells were seeded into 96- or 384-well microtiter plates at plating densities pre-determined for each cell line to ensure drug exposure occurs during the proliferative phase well before confluency is reached. […] Values were calculated for each of these three parameters if the level of activity was reached; however, if the effect was not reached or was exceeded, the value for that parameter was expressed as greater or less than the maximum or minimum concentration tested.

MCF7 = experiment: NCI 60 panel: MCF7 (Breast Cancer); assay type: cell-based
Source text: as §5

FaDu = experiment: Complementary DBM in vitro profiling: FaDu (Hypopharyngeal Cancer); assay type: cell-based
Method: as §1, §2, §3, §4

HCC-2998 = experiment: NCI 60 panel: HCC-2998 (Colon Cancer); assay type: cell-based
Source text: as §5

RPMI-8826 = experiment: Complementary DBM in vitro profiling: RPMI-8826 (Hematologic Cancer); assay type: cell-based
Method: as §1, §2, §3, §4

CCRF-CEM = experiment: NCI 60 panel: CCRF-CEM (Leukemia); assay type: cell-based
Source text: as §5

BT-549 = experiment: NCI 60 panel: BT-549 (Breast Cancer); assay type: cell-based
Source text: as §5

[1] = tested on: U251MG glioblastoma cells; experiment: Propidium iodide-based cell cycle analysis; settings: 24 h
Method: Cell cycle analysis was performed on U251-MG cells to determine at what point in the cell cycle the compounds described herein were acting. U251MG glioblastoma cells were treated for 24 h with increasing concentrations of Compound DBM 228.
However, at higher nM doses, the cells appear to progress toward apoptosis and programmed cell death, given the higher % of cells in pre-G0/G1.

OVCAR-4 = experiment: NCI 60 panel: OVCAR-4 (Ovarian Cancer); assay type: cell-based
Source text: as §5

MALME-3M = experiment: NCI 60 panel: MALME-3M (Melanoma); assay type: cell-based
Source text: as §5

[2] = read-out: LC50 (the source's name)

Work on COc1ccccc1Nc1nc(-c2cc3cccc(N)c3oc2=O)cs1 [Compound DBM 228] yielded a GI50 (UO-31) of 1460 nM, a TGI (UO-31) of 43000 nM and a CC50 (UO-31; [2]) greater than 100000 nM. It also gave a GI50 (NCI-H522) of 24.7 nM, a TGI (NCI-H522) of 94 nM and a CC50 (NCI-H522; [2]) greater than 100000 nM. For the same molecule, the GI50 (SK-MEL-5) was 76.8 nM, the TGI (SK-MEL-5) was 2300 nM and the CC50 (SK-MEL-5; [2]) was 26800 nM. The GI50 (U266) was 79.6 nM, the TGI (U266) was 116 nM and the CC50 (U266; [2]) was 161 nM. For the same molecule, the GI50 (MCF7) was 54.5 nM, the TGI (MCF7) was greater than 100000 nM and the CC50 (MCF7; [2]) was greater than 100000 nM. It also gave a GI50 (FaDu) of 1400 nM, a TGI (FaDu) of 8740 nM and a CC50 (FaDu; [2]) of 27500 nM. It also gave a GI50 (HCC-2998) of 1050 nM, a TGI (HCC-2998) of 16500 nM and a CC50 (HCC-2998; [2]) greater than 100000 nM. It also gave a GI50 (RPMI-8826) of 271 nM, a TGI (RPMI-8826) of 312 nM and a CC50 (RPMI-8826; [2]) greater than 30000 nM. It also gave a GI50 (CCRF-CEM) of 177 nM, an LC50 (50% lethal concentration) (CCRF-CEM) greater than 100000 nM and a TGI (CCRF-CEM) of 15400 nM. For the same molecule, the GI50 (BT-549) was 239 nM, the TGI (BT-549) was 12300 nM and the CC50 (BT-549; [2]) was greater than 100000 nM. The “percentage of cells in G0/G1” value ([1]; 40 nM) was 52.2%, the “percentage of cells in G2/M” value ([1]; 40 nM) was 30.2% and the “percentage of cells in Pre-G0/G1” value ([1]; 40 nM) was 3.2%. The “percentage of cells in S” value ([1]; 40 nM) was 14.4%, the “percentage of cells in G0/G1” value ([1]; 100 nM) was 19.7% and the “percentage of cells in G2/M” value ([1]; 100 nM) was 41.1%. The “percentage of cells in Pre-G0/G1” value ([1]; 100 nM) was 13.6%, the “percentage of cells in S” value ([1]; 100 nM) was 25.6% and the “percentage of cells in G0/G1” value ([1]; 400 nM) was 1.8%. For the same molecule, the “percentage of cells in G2/M” value ([1]; 400 nM) was 49.3%, the “percentage of cells in Pre-G0/G1” value ([1]; 400 nM) was 43.1% and the “percentage of cells in S” value ([1]; 400 nM) was 5.8%. For the same molecule, the “cell cycle effect, in words” value ([1]; increasing concentrations) was “G2/M arrest”, the GI50 (OVCAR-4) was 1350 nM and the TGI (OVCAR-4) was 25000 nM. For the same molecule, the CC50 (OVCAR-4; [2]) was greater than 100000 nM, the GI50 (MALME-3M) was 16800 nM and the TGI (MALME-3M) was 49600 nM. The CC50 (MALME-3M; [2]) was greater than 100000 nM.
